For test [1], the system named is epinephrine-accelerated heart rate (anti-β effect). The experiment in a line: Antiadrenergic effect: anti-β effect (reduction of epinephrine-accelerated heart rate). The format is in vivo. As to conditions: dog. The method, then: (§1) The purpose of this test was to determine the capacity of the compounds under study to reduce epinephrine-increased blood-pressure (anti-α effect) and epinephrine-accelerated heart rate (anti-β effect) in the dog previously anaesthetized with pentobarbital and atropinized.
(§2) For each dog, the dose of epinephrine was first determined which provoked a reproductible increase by about 100 mm. Hg in the arterial pressure (between 5 and 10 μg/kg). After that, the dose of epinephrine so determined was administered followed by a dose by intravenous route of the compound to be studied. The percentage of reduction of the hypertension provoked by the compound under study in comparison with the hypertension previously obtained (about 100 mm. Hg) was then registered.
(§3) The percentage of reduction of the epinephrine-induced acceleration of heart-rate produced by the compound under study in comparison with the tachycardia previously measured (about 70 beats) was then registered. In both cases, the results were expressed as follows: […]
(§4) + for a <50%-reduction of the increase in pressure or cardiac frequency
(§5) ++ for a ≥50%-reduction of the increase in pressure or cardiac frequency
(§6) +++ for a subtotal reduction of the increase in pressure or cardiac frequency

The subject of test [2] is epinephrine-increased blood-pressure (anti-α effect). The experiment in a line: Antiadrenergic effect: anti-α effect (reduction of epinephrine-increased blood-pressure). Format: in vivo. The note with it: dog. As for the experimental part: as §1, §2, §3, §4, §5, §6
Where [3] appears, read: Canis lupus familiaris, iv, dose 5 mg/kg i.v.
Setting [4] is: Canis lupus familiaris, iv, dose 10 mg/kg i.v.
Setting [5] is: Canis lupus familiaris, iv, dose 7.5 mg/kg i.v.
Setting [6] is: Canis lupus familiaris, iv, dose 8.76 mg/kg i.v.
[7] abbreviates: Canis lupus familiaris, iv, dose 7 mg/kg i.v.
The mark [8] stands for this setting: Canis lupus familiaris, iv, dose 7.8 mg/kg i.v.

The structures appear in SMILES notation.

The term inhibition in vivo denotes the change of the read-out against control, counted positive when it falls. A lower inhibition in vivo goes with a response near the control.

`CCCCN(CCCC)CCCOc1ccc(C(=O)c2c(CCC)c(C)c3ccccn23)cc1Br` [CH3/Br/H/n-C3H7/n-C4H9/3, 1-Methyl-2-n-propyl-3-[4-(3-di-n-butylaminopropyl)-oxy-3-bromo-benzoyl]-indolizine]: the Anti-β effect result in test [1] (dose 10 mg/kg i.v.) is reported as “+++”. Also, in test [2] (dose 10 mg/kg i.v.), the Anti-α effect result is “+++”.
As for `CCCCN(CCCC)CCCOc1ccc(C(=O)c2c(CC)c(C)c3ccccn23)cc1Br` [CH3/Br/H/C2H5/n-C4H9/3, 1-Methyl-2-ethyl-3-[4-(3-di-n-butylaminopropyl)-oxy-3-bromo-benzoyl]-indolizine], the inhibition in vivo at 2 mg/kg in test [1] (Canis lupus familiaris, iv, dose 2 mg/kg i.v.) is over 50%. Besides, the Anti-α effect result in test [2] (dose 2 mg/kg i.v.) is recorded as “+++”.
`CCCCc1cc2ccccn2c1C(=O)c1ccc(OCCCN(CCC)CCC)c(Br)c1` [H/Br/H/n-C4H9/n-C3H7/3, 2-n-Butyl-3-[4-(3-di-n-propylaminopropyl)-oxy-3-bromo-benzoyl]-indolizine] came in with an inhibition in vivo at 5 mg/kg in test [1] (setting [3]) of over 50%. Further, the Anti-α effect entry in test [2] (dose 5 mg/kg i.v.) is listed as “+++”.
Consider `CCCCN(CCCC)CCCOc1ccc(C(=O)c2c(C(C)C)cc3ccccn23)cc1C` [H/CH3/H/iso-C3H7/n-C4H9/3, 2-Isopropyl-3-[4-(3-di-n-butylaminopropyl)-oxy-3-methyl-benzoyl]-indolizine], for which, in test [1] (dose 7.5 mg/kg i.v.), the Anti-β effect entry is reported as “+++”. In addition, the Anti-α effect result in test [2] (dose 7.5 mg/kg i.v.) is recorded as “+++”.
On to `CCCN(CCC)CCCOc1c(Cl)cc(C(=O)c2c(CC)c(Cl)c3ccccn23)cc1Cl` [Cl/Cl/Cl/C2H5/n-C3H7/3, 1-Chloro-2-ethyl-3-[4-(3-di-n-propylaminopropyl)-oxy-3,5-dichloro-benzoyl]-indolizine], for which the inhibition in vivo at 10 mg/kg in test [1] (setting [4]) and in test [2] (setting [4]) was over 50% throughout.
For the molecule `CCCN(CCC)CCCOc1ccc(C(=O)c2c(-c3cccc(Br)c3)c(Cl)c3ccccn23)cc1Cl` [Cl/Cl/H/drawing 33/n-C3H7/3, 1-Chloro-2-(3-bromo-phenyl)-3-[4-(3-di-n-propylaminopropyl)-oxy-3-chloro-benzoyl]-indolizine], the inhibition in vivo at 8 mg/kg in test [1] (Canis lupus familiaris, iv, dose 8 mg/kg i.v.) was over 50%. In addition, the Anti-α effect entry in test [2] (dose 8 mg/kg i.v.) is “+++”.
In test [1] (setting [5]), `CCCN(CCC)CCCOc1ccc(C(=O)c2c(C(C)C)cc3ccccn23)cc1Br` [H/Br/H/iso-C3H7/n-C3H7/3, 2-Isopropyl-3-[4-(3-di-n-propylaminopropyl)-oxy-3-bromo-benzoyl]-indolizine] displayed an inhibition in vivo at 7.5 mg/kg of over 50%. Besides, the Anti-α effect entry in test [2] (dose 7.5 mg/kg i.v.) is reported as “+++”.
`CCCCN(CCCC)CCCOc1ccc(C(=O)c2c(CCC)c(Cl)c3ccccn23)cc1` [Cl/H/H/n-C3H7/n-C4H9/3, 1-Chloro-2-n-propyl-3-[4-(3-di-n-butylaminopropyl)-oxy-benzoyl]-indolizine]: in test [1] (dose 7.5 mg/kg i.v.), the Anti-β effect entry is reported as “+++”. Besides, the Anti-α effect entry in test [2] (dose 7.5 mg/kg i.v.) was “+++”.
As for `CCCCN(CCCC)CCCOc1ccc(C(=O)c2c(C)cc3ccccn23)cc1C` [H/CH3/H/CH3/n-C4H9/3, 2-Methyl-3-[4-(3-di-n-butylaminopropyl)-oxy-3-methyl-benzoyl]-indolizine], the inhibition in vivo at 8.76 mg/kg in test [1] (setting [6]) and in test [2] (setting [6]) was over 50% in each case.
In test [1] (setting [4]), `CCCCN(CCCC)CCCOc1ccc(C(=O)c2c(-c3ccc(Cl)cc3)c(Cl)c3ccccn23)cc1` [Cl/H/H/drawing 34/n-C4H9/3] came in with an inhibition in vivo at 10 mg/kg of over 50%. In test [2] (dose 10 mg/kg i.v.), the Anti-α effect result was “+++”.
In the case of `CCCCc1c(C)c2ccccn2c1C(=O)c1ccc(OCCCN(CCCC)CCCC)c(Br)c1` [CH3/Br/H/n-C4H9/n-C4H9/3, 1-Methyl-2-n-butyl-3-[4-(3-di-n-butylaminopropyl)-oxy-3-bromo-benzoyl]-indolizine], the inhibition in vivo at 7.5 mg/kg in test [1] (setting [5]) and in test [2] (setting [5]) was over 50% each time.
As for `CCCCN(CCCC)CCCOc1ccc(C(=O)c2c(C)c(Br)c3ccccn23)cc1OC` [Br/OCH3/H/CH3/n-C4H9/3, 1-Bromo-2-methyl-3-[4-(3-di-n-butylaminopropyl)-oxy-3-methoxy-benzoyl]-indolizine], the inhibition in vivo at 7 mg/kg in test [1] (setting [7]) and in test [2] (setting [7]) was over 50% throughout.
Regarding `CCCCN(CCCC)CCCOc1ccc(C(=O)c2c(-c3ccc(F)cc3)c(Br)c3ccccn23)cc1Br` [Br/Br/H/drawing 23/n-C4H9/3], the inhibition in vivo at 10 mg/kg in test [1] (setting [4]) was over 50%. Moreover, the Anti-α effect entry in test [2] (dose 10 mg/kg i.v.) was “+++”.
Consider `CCCN(CCC)CCCOc1ccc(C(=O)c2c(-c3ccccc3)c(OC)c3ccccn23)cc1Cl` [OCH3/Cl/H/drawing 43/n-C3H7/3, 1-Methoxy-2-phenyl-3-[4-(3-di-n-propylaminopropyl)-oxy-3-chloro-benzoyl]-indolizine], for which the Anti-β effect entry in test [1] (dose 10 mg/kg i.v.) was “+++”. In addition, in test [2] (dose 10 mg/kg i.v.), the Anti-α effect result is given as “+++”.
For `CCCc1c(Br)c2ccccn2c1C(=O)c1cc(Br)c(OCCCN(CCC)CCC)c(Br)c1` [Br/Br/Br/n-C3H7/n-C3H7/3, 1-Bromo-2-n-propyl-3-[4-(3-di-n-propylaminopropyl)-oxy-3,5-dibromo-benzoyl]-indolizine], the Anti-β effect result in test [1] (dose 10 mg/kg i.v.) is given as “+++”. Besides, in test [2] (dose 10 mg/kg i.v.), the Anti-α effect entry is “+++”.
In the case of `CCCN(CCC)CCCOc1ccc(C(=O)c2c(-c3ccccc3)c(OC)c3ccccn23)cc1OC` [OCH3/OCH3/H/drawing 44/n-C3H7/3], the inhibition in vivo at 10 mg/kg in test [1] (setting [4]) and in test [2] (setting [4]) was over 50% each time.
Take `CCCN(CCC)CCCOc1c(Br)cc(C(=O)c2c(-c3ccc(Br)cc3)cc3ccccn23)cc1Br` [H/Br/Br/drawing 41/n-C3H7/3]: the Anti-β effect result in test [1] (dose 10 mg/kg i.v.) is given as “+++”. Besides, the Anti-α effect entry in test [2] (dose 10 mg/kg i.v.) is “+++”.
On to `CCCCN(CCCC)CCCOc1ccc(C(=O)c2c(-c3ccccc3)c(Cl)c3ccccn23)cc1` [Cl/H/H/drawing 36/n-C4H9/3], for which the Anti-β effect result in test [1] (dose 5 mg/kg i.v.) was “+++”. Further, the Anti-α effect entry in test [2] (dose 5 mg/kg i.v.) was “+++”.
Regarding `CCCCN(CCCC)CCCOc1ccc(C(=O)c2c(CC)c(Br)c3ccccn23)cc1OC` [Br/OCH3/H/C2H5/n-C4H9/3, 1-Bromo-2-ethyl-3-[4-(3-di-n-butylaminopropyl)-oxy-3-methoxy-benzoyl]-indolizine], the inhibition in vivo at 5 mg/kg in test [1] (setting [3]) and in test [2] (setting [3]) was over 50% each time.
In the case of `CCCCN(CCCC)CCCOc1ccc(C(=O)c2c(-c3ccc(Cl)cc3)c(Br)c3ccccn23)cc1Cl` [Br/Cl/H/drawing 28/n-C4H9/3], the inhibition in vivo at 10 mg/kg in test [1] (setting [4]) and in test [2] (setting [4]) was over 50% each time.
For the molecule `CCCN(CCC)CCCOc1ccc(C(=O)c2c(CC)c(Br)c3ccccn23)cc1Cl` [Br/Cl/H/C2H5/n-C3H7/3, 1-Bromo-2-ethyl-3-[4-(3-di-n-propylaminopropyl)-oxy-3-chloro-benzoyl]-indolizine], the inhibition in vivo at 7.8 mg/kg in test [1] (setting [8]) and in test [2] (setting [8]) was over 50% each time.
In test [1] (Canis lupus familiaris, iv, dose 6 mg/kg i.v.), `CCCCN(CCCC)CCCOc1ccc(C(=O)c2c(C(C)C)cc3ccccn23)cc1Br` [H/Br/H/iso-C3H7/n-C4H9/3] had an inhibition in vivo at 6 mg/kg of over 50%. Besides, in test [2] (dose 6 mg/kg i.v.), the Anti-α effect entry is listed as “+++”.
Turning to `CCCN(CCC)CCCOc1ccc(C(=O)c2c(-c3ccc(Cl)cc3)c(Cl)c3ccccn23)cc1` [Cl/H/H/drawing 35/n-C3H7/3], the inhibition in vivo at 5 mg/kg in test [1] (setting [3]) is under 50%; in test [2] (setting [3]), over 50%.
Turning to `CCCCN(CCCC)CCCOc1ccc(C(=O)c2c(CC)cc3ccccn23)cc1Br` [H/Br/H/C2H5/n-C4H9/3, 2-Ethyl-3-[4-(3-di-n-butylaminopropyl)-oxy-3-bromo-benzoyl]-indolizine], the inhibition in vivo at 7.5 mg/kg in test [1] (setting [5]) is over 50%. For the same molecule, the Anti-α effect result in test [2] (dose 7.5 mg/kg i.v.) was “+++”.
As to `CCCCc1cc2ccccn2c1C(=O)c1ccc(OCCCN(CCCC)CCCC)c(C)c1` [H/CH3/H/n-C4H9/n-C4H9/3, 2-n-Butyl-3-[4-(3-di-n-butylaminopropyl)-oxy-3-methyl-benzoyl]-indolizine], the inhibition in vivo at 10 mg/kg in test [1] (setting [4]) and in test [2] (setting [4]) was over 50% throughout.
For `CCCCN(CCCC)CCCOc1ccc(C(=O)c2c(-c3ccccc3)c(Br)c3ccccn23)cc1Cl` [Br/Cl/H/drawing 26/n-C4H9/3], the Anti-β effect result in test [1] (dose 10 mg/kg i.v.) is “+++”. The molecule further registered an inhibition in vivo at 10 mg/kg in test [2] (setting [4]) of over 50%.
Turning to `CCCN(CCC)CCCOc1c(Br)cc(C(=O)c2c(-c3ccccc3)c(Cl)c3ccccn23)cc1Br` [Cl/Br/Br/drawing 38/n-C3H7/3, 1-Chloro-2-phenyl-3-[4-(3-di-n-propylaminopropyl)-oxy-3,5-dibromo-benzoyl]-indolizine], the inhibition in vivo at 10 mg/kg in test [1] (setting [4]) and in test [2] (setting [4]) was under 50% in each case.
As for `CCCN(CCC)CCCOc1ccc(C(=O)c2c(-c3ccccc3)c(C)c3ccccn23)cc1` [CH3/H/H/drawing 48/n-C3H7/3, 1-Methyl-2-phenyl-3-[4-(3-di-n-propylaminopropyl)-oxy-benzoyl]-indolizine], the Anti-β effect result in test [1] (dose 5 mg/kg i.v.) is recorded as “+++”. For the same molecule, in test [2] (dose 5 mg/kg i.v.), the Anti-α effect result is given as “+++”.
Regarding `CCCCN(CCCC)CCCOc1ccc(C(=O)c2c(CC)cc3ccccn23)cc1OC` [H/OCH3/H/C2H5/n-C4H9/3, 2-Ethyl-3-[4-(3-di-n-butylaminopropyl)-oxy-3-methoxy-benzoyl]-indolizine], in test [1] (setting [4]), the inhibition in vivo at 10 mg/kg is over 50%. Moreover, in test [2] (dose 10 mg/kg i.v.), the Anti-α effect entry is recorded as “+++”.
For `CCCCN(CCCC)CCCOc1ccc(C(=O)c2c(-c3ccc(Br)cc3)cc3ccccn23)cc1Cl` [H/Cl/H/drawing 31/n-C4H9/3], the inhibition in vivo at 10 mg/kg is under 50% in test [1] (setting [4]) and over 50% in test [2] (setting [4]).
